Data from PMC4188605, “Biochemical and Pharmacological Characterization of the Human Lymphocyte Antigen B-Associated Transcript 5 (BAT5/ABHD16A)” (PLoS ONE, 2014).
Values joined by “and” are separate entries in the source; they are usually repeats but may differ in a detail not shown here. Equal entries are not always repeated.

Assays:
mBAT5 = molecular target: T1, mBAT5 (Mus musculus, UniProt Q9Z1Q2); assay: Competitive ABPP (TAMRA-FP) with mBAT5-HEK293 lysates; conditions: 1 h pretreatment
T1 sequence (Q9Z1Q2 1-558): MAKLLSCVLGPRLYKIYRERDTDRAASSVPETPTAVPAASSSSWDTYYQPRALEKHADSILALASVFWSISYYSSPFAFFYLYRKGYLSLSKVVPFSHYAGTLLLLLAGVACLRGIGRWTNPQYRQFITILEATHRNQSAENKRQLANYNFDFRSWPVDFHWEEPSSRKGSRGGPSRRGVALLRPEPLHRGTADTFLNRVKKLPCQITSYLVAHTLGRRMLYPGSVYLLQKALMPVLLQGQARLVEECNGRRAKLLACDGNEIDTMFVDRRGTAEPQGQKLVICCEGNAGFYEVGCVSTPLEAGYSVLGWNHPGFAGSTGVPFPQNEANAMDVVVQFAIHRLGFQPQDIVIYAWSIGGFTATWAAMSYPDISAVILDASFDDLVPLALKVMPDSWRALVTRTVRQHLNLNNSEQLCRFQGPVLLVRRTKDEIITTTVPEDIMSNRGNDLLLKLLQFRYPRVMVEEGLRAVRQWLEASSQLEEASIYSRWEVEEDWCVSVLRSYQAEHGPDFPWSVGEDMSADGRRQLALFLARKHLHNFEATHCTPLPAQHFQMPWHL
Procedure: Inhibitor dose–response curves and IC50 values derived thereof were calculated from non-linear regressions using GraphPad Prism 5.0 for Windows. The logIC50 values are means ± SEM from three independent experiments. […] The data are derived from three separate ABPP experiments.

hABHD6 = molecular target: T2, hABHD6 (Homo sapiens, UniProt Q9BV23); assay: Hydrolase activity assay, hABHD6-HEK lysates; assay type: biochemical; conditions: hABHD6-HEK lysates; read-out: IC50
T2 construct: expressed in transfected cells; host or cells: HEK293
T2 sequence (Q9BV23 1-337): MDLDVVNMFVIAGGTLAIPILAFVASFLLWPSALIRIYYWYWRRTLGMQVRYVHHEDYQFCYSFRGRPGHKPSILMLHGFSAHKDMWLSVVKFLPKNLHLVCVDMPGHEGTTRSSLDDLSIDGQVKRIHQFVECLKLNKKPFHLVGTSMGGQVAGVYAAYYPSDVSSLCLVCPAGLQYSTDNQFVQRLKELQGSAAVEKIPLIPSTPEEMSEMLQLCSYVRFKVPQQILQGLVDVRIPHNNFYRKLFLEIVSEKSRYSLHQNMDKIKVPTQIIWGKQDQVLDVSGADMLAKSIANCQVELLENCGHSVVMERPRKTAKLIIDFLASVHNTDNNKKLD

hFAAH = molecular target: T3, hFAAH (Homo sapiens, UniProt O00519); assay: FAAH activity assay, hFAAH-COS7 membranes (3H-anandamide); assay type: biochemical
T3 construct: expressed in transfected cells; host or cells: COS-7
T3 sequence (O00519 1-579): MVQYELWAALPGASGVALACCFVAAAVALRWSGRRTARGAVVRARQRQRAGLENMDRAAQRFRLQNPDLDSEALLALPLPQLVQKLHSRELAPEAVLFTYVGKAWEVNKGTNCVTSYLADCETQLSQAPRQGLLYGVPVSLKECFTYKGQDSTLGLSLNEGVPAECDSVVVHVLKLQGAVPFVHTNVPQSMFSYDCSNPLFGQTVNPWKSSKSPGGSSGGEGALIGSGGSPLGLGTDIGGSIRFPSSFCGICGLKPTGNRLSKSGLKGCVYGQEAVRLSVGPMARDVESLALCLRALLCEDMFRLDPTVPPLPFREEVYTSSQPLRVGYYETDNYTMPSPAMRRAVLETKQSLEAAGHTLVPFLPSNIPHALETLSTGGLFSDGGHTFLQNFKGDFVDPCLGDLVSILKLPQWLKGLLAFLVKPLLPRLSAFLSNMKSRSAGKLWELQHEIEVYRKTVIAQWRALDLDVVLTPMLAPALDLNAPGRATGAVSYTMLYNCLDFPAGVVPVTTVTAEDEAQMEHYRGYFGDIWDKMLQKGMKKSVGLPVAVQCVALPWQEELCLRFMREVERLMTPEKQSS

hBAT5 = molecular target: T4, hBAT5 (Homo sapiens, UniProt O95870); assay: Inhibition of 1-LG hydrolysis in hBAT5-HEK293 lysates (fluorescent glycerol assay); assay type: biochemical; set-up: host or cells: HEK293
T4 sequence (O95870 1-558): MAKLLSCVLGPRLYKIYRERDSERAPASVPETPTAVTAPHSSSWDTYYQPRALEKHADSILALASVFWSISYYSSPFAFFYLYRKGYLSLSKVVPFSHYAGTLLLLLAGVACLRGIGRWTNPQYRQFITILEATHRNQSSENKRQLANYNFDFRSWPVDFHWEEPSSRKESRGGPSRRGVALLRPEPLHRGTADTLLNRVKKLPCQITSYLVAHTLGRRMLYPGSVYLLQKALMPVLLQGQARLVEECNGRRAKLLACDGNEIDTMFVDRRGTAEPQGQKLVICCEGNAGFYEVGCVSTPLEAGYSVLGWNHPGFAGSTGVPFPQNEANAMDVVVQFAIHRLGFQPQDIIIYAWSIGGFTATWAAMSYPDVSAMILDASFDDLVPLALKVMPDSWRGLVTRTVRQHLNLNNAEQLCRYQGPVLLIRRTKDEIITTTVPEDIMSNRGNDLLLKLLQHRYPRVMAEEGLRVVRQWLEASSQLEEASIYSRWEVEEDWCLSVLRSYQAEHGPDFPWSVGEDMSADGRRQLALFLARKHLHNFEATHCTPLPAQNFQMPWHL

hABHD12 = molecular target: T5, hABHD12 (Homo sapiens, UniProt Q8N2K0); assay: Hydrolase activity assay, hABHD12-HEK lysates; assay type: biochemical
T5 construct: expressed in transfected cells; host or cells: HEK293
T5 sequence (Q8N2K0 1-398): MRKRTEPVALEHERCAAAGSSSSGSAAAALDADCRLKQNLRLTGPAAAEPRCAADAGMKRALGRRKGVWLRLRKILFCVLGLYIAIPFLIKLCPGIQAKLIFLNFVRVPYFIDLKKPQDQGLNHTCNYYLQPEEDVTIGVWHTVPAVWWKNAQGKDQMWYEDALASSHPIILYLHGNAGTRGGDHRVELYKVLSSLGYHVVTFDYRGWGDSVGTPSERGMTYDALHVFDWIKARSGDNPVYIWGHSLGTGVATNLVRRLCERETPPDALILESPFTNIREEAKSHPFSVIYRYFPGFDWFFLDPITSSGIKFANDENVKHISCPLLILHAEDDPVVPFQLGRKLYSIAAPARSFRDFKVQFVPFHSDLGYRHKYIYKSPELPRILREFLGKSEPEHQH

hMAGL = molecular target: T6, hMAGL (Homo sapiens, UniProt Q99685); assay: Hydrolase activity assay, hMAGL-HEK lysates; assay type: biochemical
T6 construct: expressed in transfected cells; host or cells: HEK
T6 sequence (Q99685 1-303): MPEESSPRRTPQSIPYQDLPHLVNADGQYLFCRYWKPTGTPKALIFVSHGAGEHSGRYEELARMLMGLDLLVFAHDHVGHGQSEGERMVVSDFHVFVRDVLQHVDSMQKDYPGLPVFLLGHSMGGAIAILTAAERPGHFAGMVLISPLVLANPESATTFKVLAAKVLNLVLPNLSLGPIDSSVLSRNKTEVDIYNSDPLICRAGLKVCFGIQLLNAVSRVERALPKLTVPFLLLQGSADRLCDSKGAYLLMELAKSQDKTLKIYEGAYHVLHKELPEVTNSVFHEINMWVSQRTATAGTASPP

[1] = at 10^−5 M, read-out: Remaining activity

inhibition of probe binding to mBAT5 (in words) (mBAT5): inactive
IC50 (hABHD6): ~3.2 µM and 3.2 µM
sensitivity of hFAAH (in words) (hFAAH): resistant
remaining activity at 10 µM (hFAAH; [1]): 79.2%
hBAT5 inhibitory activity (in words) (hBAT5; 1-LG hydrolysis): inactive
remaining activity at 10 µM (hBAT5; at 10^-5 M, 1-LG 25 µM): 102.6 ± 1%
sensitivity of hABHD12 (in words) (hABHD12): resistant
remaining activity at 10 µM (hABHD12; [1]): 103%
sensitivity of hMAGL (in words) (hMAGL): resistant
remaining activity at 10 µM (hMAGL; [1]): 106%
SMILES: CC(=C\C(=O)O)/C=C(\C)C[C@H](C)CCCC[C@H]1OC(=O)[C@@H]1CO [Hymeglusin, hymeglusin]
